Source: patent US9364455B2, “Combination of a prostaglandin receptor agonist and an MC1R receptor agonist for the treatment and/or prevention of pigmentation disorders” (GALDERMA RESEARCH & DEVELOPMENT, priority 2011, dated 2016)

System: tail skin of SKH2 mice
Assay: Propigmenting activity by topical application on the tail of SKH2 mice (clinical pigmentation score, luminance by colorimeter)
Assay type: in vivo
Conditions: 5 days per week for 57 days, 0.01% travoprost, MC1R agonist A at 7%, B at 8%, compared with carrier group (combinations also with 0.01% travoprost alone)
From the text: In mice, melanocytes are not present in the epidermis of the areas covered with hair and are mainly present in the hair follicles. The tail skin of SKH2 mice is pigmented, which is of particular interest for evaluating the effect of topical agents on skin pigmentation. The pigmentation modifications induced by these topical compounds can be quantified by various means, for instance the clinical score of the pigmentation and the measurement of the tail color using a colorimeter. The evaluation of the propigmenting activity of 0.01% travoprost alone or in combination with MC1R receptor agonists: compound A at 7% or compound B at 8%, is carried out by topical application on the tail of SKH2 mice for 57 days. The treatment is carried out 5 days per week for 57 days. 20 μl of the test product diluted in the carrier 145 are applied to the tail. In the case of the combinations, 20 μl of the MC1R agonist solution are applied after the treatment with 20 μl of the 0.01% travoprost solution. The clinical score of the animals is recorded once a week before irradiation; the pigmentation is evaluated by virtue of a score on a scale of 0 to 4. […]

Question: How did the “clinical score for pigmentation (natural pigmentation of the tail skin)” value turn out when CC(C)OC(=O)CCC/C=C\C[C@@H]1[C@@H](/C=C/[C@@H](O)COc2cccc(C(F)(F)F)c2)[C@H](O)C[C@@H]1O [travoprost] was run?
Answer: moderately increases the natural pigmentation of the tail skin as early as day 36
